Experimental data: the CheMixHub viscosity set

Assay: xn = mol fraction of the nth substance listed

CCCCCCCC + CCCCCCC
Conditions | viscosity [mPa·s]
293.15 K, 101 kPa, x2 = 0.2 | 0.511
293.15 K, 101 kPa, x2 = 0.4 | 0.484
293.15 K, 101 kPa, x2 = 0.6 | 0.458
293.15 K, 101 kPa, x2 = 0.8 | 0.433
293.15 K, 101.33 kPa, x2 = 0.07168 | 0.531
293.15 K, 101.33 kPa, x2 = 0.1121 | 0.525
293.15 K, 101.33 kPa, x2 = 0.1909 | 0.514
293.15 K, 101.33 kPa, x2 = 0.2852 | 0.501
293.15 K, 101.33 kPa, x2 = 0.3891 | 0.487
293.15 K, 101.33 kPa, x2 = 0.4993 | 0.473
293.15 K, 101.33 kPa, x2 = 0.5985 | 0.46
293.15 K, 101.33 kPa, x2 = 0.6936 | 0.448
293.15 K, 101.33 kPa, x2 = 0.7797 | 0.437
293.15 K, 101.33 kPa, x2 = 0.8967 | 0.422
293.15 K, 101.33 kPa, x2 = 0.9584 | 0.414
298.15 K, 101.33 kPa, x2 = 0.1073 | 0.4942
298.15 K, 101.33 kPa, x2 = 0.2098 | 0.4774
298.15 K, 101.33 kPa, x2 = 0.406 | 0.4539
298.15 K, 101.33 kPa, x2 = 0.5089 | 0.4431
298.15 K, 101.33 kPa, x2 = 0.6081 | 0.4285
298.15 K, 101.33 kPa, x2 = 0.7052 | 0.4201
298.15 K, 101.33 kPa, x2 = 0.807 | 0.4103
298.15 K, 101.33 kPa, x2 = 0.9012 | 0.3958
303.15 K, 101.33 kPa, x2 = 0.1022 | 0.469
303.15 K, 101.33 kPa, x2 = 0.199 | 0.458
303.15 K, 101.33 kPa, x2 = 0.2324 | 0.454
303.15 K, 101.33 kPa, x2 = 0.3088 | 0.445
303.15 K, 101.33 kPa, x2 = 0.369 | 0.438
303.15 K, 101.33 kPa, x2 = 0.5069 | 0.423
303.15 K, 101.33 kPa, x2 = 0.5644 | 0.416
303.15 K, 101.33 kPa, x2 = 0.6459 | 0.407
303.15 K, 101.33 kPa, x2 = 0.7393 | 0.397
303.15 K, 101.33 kPa, x2 = 0.799 | 0.391
303.15 K, 101.33 kPa, x2 = 0.9128 | 0.379
312.75 K, 100 kPa, x1 = 0.2 | 0.3426
313.15 K, 101 kPa, x2 = 0.2 | 0.407
313.15 K, 101 kPa, x2 = 0.4 | 0.387
313.15 K, 101 kPa, x2 = 0.6 | 0.368
313.15 K, 101 kPa, x2 = 0.8 | 0.35
313.15 K, 101.33 kPa, x2 = 0.05003 | 0.426
313.15 K, 101.33 kPa, x2 = 0.09664 | 0.421
313.15 K, 101.33 kPa, x2 = 0.1716 | 0.413
313.15 K, 101.33 kPa, x2 = 0.212 | 0.409
313.15 K, 101.33 kPa, x2 = 0.2687 | 0.404
313.15 K, 101.33 kPa, x2 = 0.3937 | 0.392
313.15 K, 101.33 kPa, x2 = 0.4963 | 0.382
313.15 K, 101.33 kPa, x2 = 0.596 | 0.372
313.15 K, 101.33 kPa, x2 = 0.6942 | 0.363
313.15 K, 101.33 kPa, x2 = 0.7937 | 0.354
313.15 K, 101.33 kPa, x2 = 0.9085 | 0.343
313.15 K, 101.33 kPa, x2 = 0.9589 | 0.339
